According to PMC7146544, “Dual Plasmepsin-Targeting Antimalarial Agents Disrupt Multiple Stages of the Malaria Parasite Life Cycle” (Cell Host & Microbe, 2020):
“And” between values parts separate entries of the source, which are not always exact repeats. Identical values can stand only once. Like-named read-outs stand apart in the source and are kept apart here.

Key:
Dd2 parasites = type: cell-based, Plasmodium falciparum; conditions: inocula 10^5 to 10^9 parasites, up to 90 days
Text: Each experiment was monitored by weekly microscopic examination of thin blood films. Media and compound were replaced three times each week.

P. falciparum [1] = experiment: P. falciparum asexual blood-stage growth inhibition (LDH or SYBR Green flow cytometry); type: cell-based, Plasmodium falciparum
Description: For High Throughput Screening (HTS) of compounds we used the lactate dehydrogenase (LDH) assay to detect parasitemia ([Makler et al., 1993], [Oduola et al., 1997]) formatted in a 384 well assay using an Echo555 (Labcyte). The P. falciparum assay was conducted with minor modifications ([Gamo et al., 2010]). Briefly, an inoculum of parasitized red blood cells at 0.7% parasitemia and 2% hematocrit in RPMI-1640, 5% AlbuMAX, 2% d-sucrose, 0.3% glutamine and 150 μM hypoxanthine was used for the assay. Assay plates (Greiner #781098, 384 well, white, tissue culture treated) were prepared by dispensing 1 μl of compound from master plates at 20 μM (10% DMSO stock) into 9ul pre-dispensed growth media in each well. The parasite inoculum (30 μl) was dispensed into plates containing compounds using a Multidrop Combi dispenser (Thermo Scientific). Final assay volume was 40 μl and final compound concentration was 500 nM. The positive growth control was 0.25% DMSO and the negative growth control was 100 nM chloroquine. Plates were incubated at 37 °C for 72 h in an atmosphere of […]. Following 72 h growth, plates were sealed with parafilm and frozen at −80 °C overnight. Plates were thawed at room temperature for at least 4 h prior to LDH activity being measured. 45 μl of fresh LDH reaction mix (174 mM sodium l-lactate, 214 μM 3-acetyl pyridine adenine dinucleotide (APAD), 270 μM Nitro Blue tetrazolium chloride (NBT), 4.35 U ml-1 diaphorase, 0.7% Tween 20, 100 mM Tris-HCl pH 7.5) was dispensed into each well using a Multidrop Combi dispenser. Plates were shaken to ensure mixing and absorbance at 650 nm was measured in an EnVision (PerkinElmer) plate reader after 30 min of incubation at room temperature. Data were normalized to percent growth inhibition using positive and negative controls and analyzed using Dotmatics 5.3 and Spotfire 7.11.1 (Tibco) software.
All wells were backfilled with DMSO to 45 nL such that this remained constant (0.1% DMSO). The positive growth control was 0.1% DMSO and the negative growth control was 100 nM chloroquine. Parasite inoculum (40 μl) was dispensed into plates containing compounds as described above. All other culture and lactate dehydrogenase (LDH) reaction methods are as described previously ([Makler et al., 1993], [Oduola et al., 1997]).
(§1) After 72 h incubation at 37°C each well was fixed at room temperature for 30 min with 50 μL of 0.25% glutaraldehyde (ProSciTech) diluted in PBS. Following centrifugation at 1200 rpm for 1 min, supernatants were discarded and parasites were stained with 50 μL of 5X SYBR Green (Invitrogen) diluted in PBS. 50,000 cells were counted by flow cytometry using a Cell Lab Quanta SC – MPL Flow Cytometer (Beckman Coulter) ([Bacon et al., 2007]). Growth was expressed as a percentage of the parasitemia obtained using a vehicle control. All samples were tested in triplicate. EC50 values were determined using GraphPad Prism.

[2] = Pharmacokinetic attributes (no method given); conditions: in vivo
HepG2 cells = experiment: EC50 for HepG2 cells; type: cell-based; conditions: Homo sapiens
3D7 parasite cultures = experiment: Time of drug killing; type: cell-based, Plasmodium falciparum; conditions: 80nM WM4, 40nM WM5, 5nM WM382, added to early rings
Description: 3D7 parasite cultures were synchronized using 5% sorbitol (Sigma) twice at 46 h intervals then again when the culture was a mix of late schizonts and early rings. […] The parasitemia of each culture was quantitated every 8 h for 48 h by collecting 50 μL samples for counting by flow cytometry (as previously described). The developmental stage of the parasites was confirmed at each time point by microscopic examination of Giemsa stained thin blood films. Media and compound were replaced at the 32 h time point.

[3] = molecular target: T1, P. falciparum aspartic protease, PMV (Plasmodium falciparum, UniProt Q8I6Z5); experiment: Peptide cleavage (FRET) assay, PMV; type: biochemical; conditions: calculated from IC50 with Cheng-Prusoff equation
T1 construct: made in house
T1 sequence (Q8I6Z5 whole entry): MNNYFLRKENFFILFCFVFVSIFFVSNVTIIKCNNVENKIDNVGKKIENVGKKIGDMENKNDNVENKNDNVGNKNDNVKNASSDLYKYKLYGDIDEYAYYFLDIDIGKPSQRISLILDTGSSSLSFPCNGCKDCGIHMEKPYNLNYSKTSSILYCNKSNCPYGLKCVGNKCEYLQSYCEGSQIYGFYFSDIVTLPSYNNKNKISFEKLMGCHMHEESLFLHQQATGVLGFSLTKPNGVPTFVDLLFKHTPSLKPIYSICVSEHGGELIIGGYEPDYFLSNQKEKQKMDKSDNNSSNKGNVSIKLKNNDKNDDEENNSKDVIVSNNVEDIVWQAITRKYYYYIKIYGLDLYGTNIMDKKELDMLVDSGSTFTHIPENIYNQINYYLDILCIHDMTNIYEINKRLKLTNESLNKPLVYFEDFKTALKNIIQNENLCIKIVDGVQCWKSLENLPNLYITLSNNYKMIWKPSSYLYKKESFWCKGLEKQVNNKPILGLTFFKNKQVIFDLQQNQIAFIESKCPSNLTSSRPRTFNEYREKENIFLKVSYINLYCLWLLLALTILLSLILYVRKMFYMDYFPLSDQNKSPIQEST

[4] = molecular target: T2, recombinant PMX protein (rPMX) (Plasmodium falciparum, UniProt Q8IAS0); experiment: biochemical
T2 sequence (Q8IAS0 222-573): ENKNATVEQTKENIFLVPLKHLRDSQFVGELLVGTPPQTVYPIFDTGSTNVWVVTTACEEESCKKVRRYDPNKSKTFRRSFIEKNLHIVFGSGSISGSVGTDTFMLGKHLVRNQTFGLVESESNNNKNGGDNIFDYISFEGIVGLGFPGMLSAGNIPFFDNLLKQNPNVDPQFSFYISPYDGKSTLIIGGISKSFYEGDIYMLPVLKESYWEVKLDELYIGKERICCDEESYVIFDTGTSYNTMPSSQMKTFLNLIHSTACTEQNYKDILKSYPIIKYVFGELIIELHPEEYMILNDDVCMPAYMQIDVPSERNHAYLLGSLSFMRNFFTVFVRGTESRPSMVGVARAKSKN
Description: (§2) All wells were backfilled to 200 nL DMSO such that it remains constant across the assay plates (1% final). IC50 values were calculated by Dotmatics 5.3 and Spotfire 7.11.1 software using a nonlinear regression four-parameter fit analysis. The equation used is sigmoidal dose response (variable slope), Y = bottom + (top − bottom)/(1+10((logEC50 − X) × Hill Slope)). Compound Ki values were calculated from the IC50s using the Cheng-Prusoff equation, Ki = IC50/(1 + [S]/Km).
(§3) All compound potency assays were conducted in 20 μl total volume. For each assay, 10 μl of recombinant enzymes in respective assay buffers (Table) were dispensed into compound containing assay plates using a Multidrop Combi dispenser and allowed to incubate for 15 min. The reactions were started with a further 10 μl addition of FRET peptide substrates and reactions incubated at 37 °C for various times (Table).Samples were excited at 340 nm and fluorescence emission measured at 492 nm using an Envision fluorescence plate reader (Perkin-Elmer).

[5] = molecular target: T2, recombinant PMX protein (rPMX)
Description: as §2, §3

[6] = tested on: WM5 and 4 resistant P. falciparum; experiment: microbe, parasite or virus in culture; type: cell-based, Plasmodium falciparum
Description: as §1
The parent and resistant lines were then cloned by limiting dilution, the EC50 for each line was determined and genomic DNA was purified from clonal parasites (QIAGEN Blood and Tissue Kit).

P. berghei [7] = experiment: Peters' 4-day suppressive test for P. berghei infection in mice; type: in vivo, Plasmodium berghei; conditions: intraperitoneal, 20 mpk q.d., 4 days, Swiss mice
Description: For results shown in Figure 1 A male Swiss mice were infected intraperitoneally (IP) with 1 × 10^6 P. berghei ANKA-parasitised red blood cells withdrawn from a previously infected donor mouse. Test compounds were prepared in a vehicle consisting of 10% DMSO/90% Solutol (5% Solutol® HS-15 in 0.9% saline). […] Peripheral blood samples were taken 24 h after administration of the last dose, and parasitemia was measured by microscopic analysis of Giemsa-stained blood smears. Parasitemia values were averages for 6 mice per group and are expressed as percent parasitemia. For results shown in Figure 4A ‘donor’ female Swiss mice were infected intraperitoneally (IP) with blood stage P. berghei parasites constitutively expressing GFP (P. berghei ANKA GFPcon 259cl2 ([Franke-Fayard et al., 2004]). Three days later, groups of 4 ‘acceptor’ Swiss mice were infected intravenously (IV) with 1 × 10^7 parasitised erythrocytes from the ‘donor’ mice. Two h post infection, experimental mice (4 per cohort) were left untreated (control mice) or treated orally on 4 consecutive days with test drugs formulated in 20% DMSO/60% PG/20% water (v/v/v) or chloroquine dissolved in water. […] Peripheral blood samples were taken 12 h after the last treatment, and parasitemia measured by flow cytometry (proportion of GFP-positive cells in 100,000 recorded events using FACSCalibur, BD) and microscopic analysis of Giemsa-stained blood smears. Parasitemia values were averages for 4 mice per group and are expressed as percent parasitemia.

[8] = tested on: protein processing by PMIX and PMX in P. falciparum; experiment: Processing inhibition assays (immunoblot of merozoites and supernatants); type: cell-based, Plasmodium falciparum; conditions: E64 10 μM, WM4 40 nM, WM382 2.5 nM
Description: Processing inhibition assays were performed as previously described ([Boyle et al., 2010]). Synchronized late trophozoite/early schizont cultures to which protease inhibitors had already been added, were passed over LD magnetic columns (Miltenyi Biotech) to remove uninfected erythrocytes. The cysteine protease inhibitor E64 (Sigma) was used at 10 μM. […] A control dish without any protease inhibitor was also included. Parasites were eluted from columns with complete RPMI 1640 culture medium to which the appropriate inhibitor at the same concentration had been added. Eluted parasites were adjusted to 5x10^6 schizonts/mL and 150 ul added per well of a 96-well flat-bottomed culture dish. […] Parasites from each condition were spun at 10000 g/10 min so that merozoite and supernatant fractions could be separately collected. Proteins from both fractions were extracted with Reducing sample buffer and separated on 4%–12% or 3%–8% acrylamide gels (NuPAGE, Invitrogen).

P. berghei [9] = experiment: Dose ranging test for P. berghei infection in mice; type: in vivo, Plasmodium berghei; conditions: chloroquine 10 mpk oral q.d. 4 days
Description: Control mice were treated orally with chloroquine for 4 days under q.d. dosing regimen at 10 mpk/day. From day 2 to 30 post infection, parasitemia was measured daily by flow cytometry and microscopy, as described above. Survival of animals to day 30 post infection, with no detectable parasites in the peripheral blood, were considered to be cured (i.e., 100% efficacy).

P. falciparum [10] = experiment: P. falciparum humanized NOD-scid IL2R_null mouse model; conditions: chloroquine 50 mpk oral q.d. 4 days from day 3
Description: Compounds were tested in the murine P. falciparum SCID model ([Angulo-Barturen et al., 2008]). […] The mice were intravenously infected with 2 × 10^7 P. falciparum Pf3D7-infected erythrocytes (day 0) ([Angulo-Barturen et al., 2008]). On day 3 after infection, mice were randomly allocated to treatments that were administered once a day for 4 consecutive days (n = 3 mice) by oral gavage at 10 mL/kg. Parasitemia was measured by microscopy. Chimerism was monitored by flow cytometry using anti-murine erythrocyte TER119 monoclonal antibody (PharMingen, San Diego, CA) and SYTO-16 and then analyzed by flow cytometry in serial 2 μL blood samples taken every 24 h until assay completion.

P. falciparum 3D7 = experiment: Ring stage survival assay for artesunate; type: cell-based, Plasmodium falciparum; conditions: 3D7, 700 nM artesunate 6 h, then 66 h drug-free
Description: The method for determining sensitivity to artesunate was as described ([Kite et al., 2016]). Parasites were synchronized twice with 5% sorbitol at 46 h intervals and again when they were a mixture of schizonts and early rings. Triplicate 1 mL cultures were set up in 24 well plates (Falcon) at 0.5% parasitemia and 2% hematocrit with either 700 nM artesunate (Sigma) or 0.1% DMSO vehicle control. Following 6 h incubation, the cells were washed and incubated in drug-free media for a further 66 h. A 50 μL sample of each culture was fixed with 0.25% glutaraldehyde and stained with 5X SYBR then parasitemia was determined by flow cytometry. Percentage survival is parasitemia relative to vehicle treated parasites.
The percentage survival of all parasite lines was high in our experiments (∼5% for 3D7) was high compared to that described previously ([Kite et al., 2016]) most likely because we used a FACS based method was used for detection and quantitation. However, we were clearly able to distinguish the resistant CAM3 R539T line from the sensitive CAM3 Rev and 3D7 parasite lines.

[11] = 3D7 parasite line, asexual blood stage, read-out: EC50, inhibition of P. falciparum growth

## O=C1C(O)=C([C@H]2CC[C@H](c3ccc(Cl)cc3)CC2)C(=O)c2ccccc21 [atovaquone]
Dd2 parasites
  selection of resistant parasites, time to resistance: Parasites resistant to atovaquone were selected

## CC(NC(=O)c1cccc(C(c2ccccc2)N2C(=N)NC(C)(C(C)C)CC2=O)c1)c1ccccc1 (stereo not shown) [S-WM4]
P. falciparum [1]; [11]
  EC50: 440 ± 113 nM

## CC(C)CC(c1ccc(C(F)(F)F)c(C(=O)N2Cc3nccnc3C2)c1)N1C(=N)NC(CC2CC2)(c2ccccc2)CC1=O (stereo not shown) [S-WM5]
P. falciparum [1]; [11]
  EC50: 688 ± 218 nM

## CC(C)CC(c1ccc(C(F)(F)F)c(C(=O)N2Cc3nccnc3C2)c1)N1C(=N)NC(CC2CC2)(c2ccccc2)CC1=O (racemic) [WM5]
[2]
  pharmacokinetic attributes: did not have desirable pharmacokinetic attributes
HepG2 cells
  EC50: 17900 ± 2000 nM
3D7 parasite cultures
  stage of arrest of blood-stage development: arrested at late schizont stage
[3]
  Ki: 3300 ± 540 nM
[4]
  IC50: 3.02 nM
  Ki: 1.9 ± 0.6 nM
[5]
  Fold Selectivity PMX v PMV: 1,755 fold
[6]; Plasmodium falciparum, 3D7, read-out: EC50, 3D7, parental line 3D7
  EC50: 13.5 ± 0.78 nM
[6]; Plasmodium falciparum, 3D7, read-out: EC50, 3D7-WM4.1, WM4-resistant line 3D7-WM4.1
  EC50: 202 ± 7.23 nM
[6]; Plasmodium falciparum, 3D7, read-out: EC50, 3D7-WM4.2, WM4-resistant line 3D7-WM4.2, Figure S1
  EC50: 144 ± 46.6 nM
[6]; Plasmodium falciparum, 3D7, read-out: EC50, 3D7-WM5.1, WM5-resistant line 3D7-WM5.1
  EC50: 172 ± 6.95 nM
[6]; Plasmodium falciparum, 3D7, read-out: EC50, 3D7-WM5.2, WM5-resistant line 3D7-WM5.2, Figure S1
  EC50: 118 ± 4.7 nM
[6]; Plasmodium falciparum, 3D7, read-out: EC50, 3D7-WM5.3, WM5-resistant line 3D7-WM5.3, Figure S1
  EC50: 51.8 ± 19.7 nM
[6]; printed as X in Figure 1E
  fold resistance of 3D7-WM5.1 compared with 3D7: 13 fold
[6]; read-out: EC50, 3D7-WM4.1, WM4-resistant line 3D7-WM4.1
  EC50: 107 ± 2.2 nM
[6]; read-out: EC50, 3D7-WM5.1, WM5-resistant line 3D7-WM5.1
  EC50: 172 nM and 117 nM
[6]; read-out: EC50, 3D7, parental line 3D7
  EC50: 11.1 ± 3.7 nM
P. falciparum [1]; Plasmodium falciparum, Figure 2C, mean ± SD, three experiments, read-out: EC50 P. falciparum
  EC50: 9.3 ± 2.7 nM
P. berghei [7]
  in vivo activity against P. berghei infection: partial efficacy

## CC(NC(=O)c1cccc(C(c2ccccc2)N2C(=N)NC(C)(C(C)C)CC2=O)c1)c1ccccc1 (stereo not shown) [R-WM4]
P. falciparum [1]; [11]
  EC50: 4.6 nM

## CC(C)C[C@H](NC(=O)[C@H]1O[C@@H]1C(=O)O)C(=O)NCCCCN=C(N)N [E64, reference compound]
[8]
  AMA1 processing in merozoites: not affected
  ASP processing: ASP was processed
  MTRAP processing: did not inhibit its processing
  PMIX processing in parasites: not inhibited
  RAP1 processing: Two processed forms of RAP1 (p82 and p69) are detected
  RON3 processing: did not block processing
  Rh1 processed fragments, release into the supernatant: the processed fragments were released into the supernatant

## CCN(CC)CCCC(C)Nc1ccnc2cc(Cl)ccc12 (stereo not shown) [chloroquine, reference compound]
P. berghei [9]
  day post-infection on which parasites were detectable: 10 days
P. falciparum [10]
  day by which mice were cleared of parasitemia: ≤ 7 days

## C[C@H]1[C@H](OC(=O)CCC(=O)O)O[C@@H]2O[C@@]3(C)CC[C@H]4[C@H](C)CC[C@@H]1[C@@]24OO3 [artesunate]
P. falciparum 3D7
  percentage survival, ring stage survival assay: ~5%

## CC(C)CC(c1ccc(C(F)(F)F)c(C(=O)N2Cc3nccnc3C2)c1)N1C(=N)NC(CC2CC2)(c2ccccc2)CC1=O (stereo not shown) [R-WM5]
P. falciparum [1]; [11]
  EC50: 10 nM
